Values of other authors in US20230312573A1, “NOVEL SALTS, CRYSTALS, AND CO-CRYSTALS” (INTRA-CELLULAR THERAPIES, INC., priority 2021, published 2023).

How the values were obtained:
[1] = biological target: H1 histaminergic receptor (Homo sapiens, UniProt P35367)
5-HT2C receptor = biological target: T1, 5-HT2C receptor (Homo sapiens, UniProt P28335)
T1 sequence (P28335 33-458): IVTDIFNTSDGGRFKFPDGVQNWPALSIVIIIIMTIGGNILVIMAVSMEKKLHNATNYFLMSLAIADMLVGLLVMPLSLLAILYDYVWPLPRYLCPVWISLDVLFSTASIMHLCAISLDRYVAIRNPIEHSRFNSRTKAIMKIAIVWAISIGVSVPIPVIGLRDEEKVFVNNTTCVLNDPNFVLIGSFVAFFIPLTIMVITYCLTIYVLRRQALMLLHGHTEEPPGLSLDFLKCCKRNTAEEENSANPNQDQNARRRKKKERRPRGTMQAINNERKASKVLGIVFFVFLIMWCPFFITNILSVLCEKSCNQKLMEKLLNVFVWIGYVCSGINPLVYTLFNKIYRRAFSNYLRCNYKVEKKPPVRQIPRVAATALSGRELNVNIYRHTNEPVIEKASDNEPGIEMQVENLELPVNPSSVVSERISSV

Chain of H1 histaminergic receptor (P35367 whole entry): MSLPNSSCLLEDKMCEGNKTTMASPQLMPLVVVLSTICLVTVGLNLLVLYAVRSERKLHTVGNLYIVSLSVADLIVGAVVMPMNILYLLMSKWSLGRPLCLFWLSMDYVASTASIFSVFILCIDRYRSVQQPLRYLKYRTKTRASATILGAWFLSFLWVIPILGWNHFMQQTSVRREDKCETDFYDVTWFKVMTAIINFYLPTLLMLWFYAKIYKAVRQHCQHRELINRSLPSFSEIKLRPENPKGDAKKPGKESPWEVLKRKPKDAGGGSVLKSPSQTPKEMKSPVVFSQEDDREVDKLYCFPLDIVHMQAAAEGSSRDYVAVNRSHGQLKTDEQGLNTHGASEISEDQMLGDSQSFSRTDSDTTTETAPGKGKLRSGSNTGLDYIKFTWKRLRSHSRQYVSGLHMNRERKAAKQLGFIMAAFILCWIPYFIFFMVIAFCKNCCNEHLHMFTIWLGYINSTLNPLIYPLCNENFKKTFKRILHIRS

CN1CCN2c3c(cccc31)[C@@H]1CN(CCCC(=O)c3ccc(F)cc3)CC[C@@H]12 [Lumateperone, 1-(4-fluoro-phenyl)-4-((6bR,10aS)-3-methyl-2,3,6b,9,10,10a-hexahydro-1H,7H-pyrido[3′,4′:4,5]pyrrolo[1,2,3-de]quinoxalin-8-yl)-butan-1-one]
negligible binding: binding to H1 histaminergic receptors [1] | binding to 5-HT2C receptors (5-HT2C receptor) | binding to muscarinic receptors (muscarinic receptor)
